Literature values as cited in patent publication US20070059297A1, “Methods and compositions for improving visual acuity” (Nestec, S.A., priority 2005, published 2007).

Test system: rat retina neuronal cells
Details: in vitro incubation

Q: For `CC/C=C\C/C=C\C/C=C\C/C=C\C/C=C\C/C=C\CCC(=O)O` [DHA, docosahexaenoic acid], which “DHA content of cells incubated with DHA versus cells incubated with other fatty acids” value is on record?
A: four- to six-fold more DHA
